Experimental data taken from patent US10086028B2, “Method for treating vascular inflammation, improving skin beauty and improving male sexual function using ginseng berry” (AMOREPACIFIC CORPORATION, priority 2007, dated 2018).

Legend:
[1] = test system: melanocytes (MeI-Ab cells); test: Inhibition of melanin generation in mouse melanocytes; type: cell-based, C57BL/6 mouse; settings: added for 3 consecutive days; sample 10 μg/mL
Protocol: Inhibition of melanin generation in mouse melanocytes was evaluated in order to confirm the effect of the ginseng berry extract of Example 1 of inhibiting melanin generation.
First, melanocytes (MeI-Ab cells) derived from C57BL/6 mouse [Dooley, T. P. et al, Skin Pharmacol., 7, pp. 188-200] were cultured in Dulbecco's modified Eagle's medium (DMEM) containing 10% FBS, 100 nM 2-O-tetradecanoylphorbol-13-acetate and 1 nM cholera toxin under the condition of 37° C., 5% CO2. The cultured MeI-Ab cells were separated using 0.25% trypsin-EDTA, and cultured on a 24-well plate to a concentration of 10^5 cells/well. Starting from day 2, the ginseng berry extract of Example 1 (1 μg/mL, 10 μg/mL and 100 μg/mL), the ginseng berry saponin concentrate of Example 2 (10 μg/mL), the ginseng root extract of Comparative Example 1 (10 μg/mL) or ginsenosides Rg1, Rg2, Rh1 or Re (10 μg/mL) was added for 3 consecutive days. Hydroquinone (10 μg/mL) was used as a positive control substance. Then, after removing the medium and washing with PBS, the cells were dissolved with 1 N sodium hydroxide. Absorbance was measured at 400 nm, and melanin generation inhibition ratio was calculated by Equation 3.

[2] = test system: endothelial cells (HUVEC); test: Increase of NO generation in endothelial cells (Test Example 12); type: cell-based
Protocol: Endothelial cells were adhered on a gelatin-coated 24-well plate, with a density of 2.5×10^4 cells/well. The cells were cultured for 12 hours using a growth medium. The endothelial cells were pre-treated for 12 hours, using the ginseng berry extract, the ginseng berry saponin concentrate or the ginseng root extract (Examples 1-2 and Comparative Example 1). Then, they, including a non-treated group, were treated with 10 μmol/L DAF-FM diacetate (Molecular Probe, Oreg.) at 37° C. for 30 minutes in an FBS-free M199 medium. Subsequently, the endothelial cells were washed 3 times with an FBS-free M199 medium, put in a parallel plate flow chamber, and stimulated with light isolated from a mercury lamp. Excitation wavelength was 488 nm. Fluorescence of 515 nm is emitted when DAF binds with NO.
Increase of generation of NO, which is known as an important signal transduction substance related with penile erection, in endothelial cells was observed after treating with the ginseng berry extract. Experiment was carried out in a manner substantially the same as that of Test Example 2, but L-arginine was treated together with the ginseng root extract of Comparative Example 1 and the ginseng berry extract of Example 1. […]

[3] = test system: human HaCaT keratinocytes; test: Antioxidative effect: removal of UV-generated ROS in HaCaT keratinocytes; type: cell-based; settings: ROS generated by UV in HaCaT; sample 10 μg/mL (Trolox given as (10))
Source text: Antioxidative effect of the ginseng berry extract was investigated by comparing the ability of removing reactive oxygen species (ROS) generated in human HaCaT keratinocytes by ultraviolet (UV) radiation.

type I procollagen = test: Type I procollagen assay in human fibroblasts (ELISA); type: cell-based; settings: 3rd day, 10 ng/mL
Protocol: Human fibroblasts were cultured on a 12-well plate incubator to a concentration of 10^5 cells/well. Then, the medium was replaced by one including the ginseng berry extract of Example 1 (1 μg/mL and 10 μg/mL), the ginseng berry saponin concentrate of Example 2 (10 μg/mL), the ginseng root extract of Comparative Example 1 (10 μg/mL) or ginsenosides Rg1, Rg2, Rh1 or Re (10 μg/mL). 10 ng/mL transforming growth factor β (TGF-β) was used as a positive control substance.
On the 3rd day of culturing, the cells were harvested and the quantity of produced type I procollagen was analyzed using ELISA. The result was calculated as a relative value with respect to the negative control group, which was not treated with a test substance.

[4] = test system: matrix metalloproteinase I (MMP-1); test: Inhibition of UVB-induced MMP-1 expression in human fibroblasts (ELISA); type: cell-based; settings: UVB 40 mJ/cm^2, 2nd day, relative to UV control; 10 ng/mL
Protocol: Human fibroblasts were cultured on a 12-well plate incubator to a concentration of 10^5 cells/well. Then, after irradiating UVB at 40 mJ/cm^2, the medium was replaced by one including the ginseng berry extract of Example 1 (1 μg/mL and 10 μg/mL), the ginseng berry saponin concentrate of Example 2 (10 μg/mL), the ginseng root extract of Comparative Example 1 (10 μg/mL) or ginsenosides Rg1, Rg2, Rh1 or Re (10 μg/mL). 10 ng/mL TGF-β was used as a positive control substance. On the 2nd day of culturing, the cells were harvested and the quantity of produced matrix metalloproteinase I (MMP-1) was analyzed using ELISA. The result was calculated as a relative value with respect to the control group, which was irradiated with UV without treating with a test substance.

Oc1ccc(O)cc1 [Hydroquinone]
Melanin generation inhibition ratio (%) [1]: 39%

N=C(N)NCCC[C@H](N)C(=O)O [L-Arginine]
increased NO generation with respect to the negative control group ([2]; 250 μM): about 2.7 times
increased NO generation with respect to the negative control group ([2]; 500 μM): ~5.5 times

Cc1c(C)c2c(c(C)c1O)CCC(C)(C(=O)O)O2 (stereo not drawn) [Trolox]
Antioxidative effect (%) [3]: 33%

transforming growth factor β [TGF-β]
Procollagen activity relative to negative control (%) (type I procollagen): 145%
MMP-1 expression (%) [4]: 65%
